Experimental data reported in ChEMBL document CHEMBL3046640, “Synthesis and antimicrobial activity of bischalcone derivatives” (2013).
Converted amounts (≈) assume the structure as drawn. The source made the active and inactive calls. No cut-off for these calls is given here.

Legend:
Assay type in all cases: functional
Staphylococcus aureus [1] = test: Antibacterial activity against Staphylococcus aureus ATCC 25923 assessed as growth inhibition after 24 hr by broth dilution method
Rhizopus arrhizus [2] = test: Antifungal activity against Rhizopus oryzae MTCC 262 assessed as growth inhibition at 100 ug/mL after 3 to 4 days by agar diffusion method; details: read-out: DIZ
Candida albicans [3] = test: Antifungal activity against Candida albicans ATCC 10231 assessed as growth inhibition at 100 ug/mL after 3 to 4 days by agar diffusion method; details: read-out: DIZ
Pseudomonas aeruginosa [4] = test: Antibacterial activity against Pseudomonas aeruginosa ATCC 27853 assessed as growth inhibition at 100 ug/mL after 24 hr by cup-plate method; details: ATCC 27853, 24 h, read-out: DIZ
Pseudomonas aeruginosa [5] = test: Antibacterial activity against Pseudomonas aeruginosa ATCC 27853 assessed as growth inhibition after 24 hr by broth dilution method
Rhizopus arrhizus [6] = test: Antifungal activity against Rhizopus oryzae MTCC 262 assessed as growth inhibition after 48 hr by broth dilution method
Staphylococcus aureus [7] = test: Antibacterial activity against Staphylococcus aureus ATCC 25923 assessed as growth inhibition at 100 ug/mL after 24 hr by cup-plate method; details: ATCC 25923, 24 h, read-out: DIZ
Escherichia coli [8] = test: Antibacterial activity against Escherichia coli ATCC 25922 assessed as growth inhibition at 100 ug/mL after 24 hr by cup-plate method; details: ATCC 25922, 24 h, read-out: DIZ
Aspergillus niger [9] = test: Antifungal activity against Aspergillus niger ATCC 16404 assessed as growth inhibition after 48 hr by broth dilution method
Candida albicans [10] = test: Antifungal activity against Candida albicans ATCC 10231 assessed as growth inhibition after 48 hr by broth dilution method
Aspergillus niger [11] = test: Antifungal activity against Aspergillus niger ATCC 16404 assessed as growth inhibition at 100 ug/mL after 3 to 4 days by agar diffusion method; details: read-out: DIZ
Escherichia coli [12] = test: Antibacterial activity against Escherichia coli ATCC 25922 assessed as growth inhibition after 24 hr by broth dilution method

Structure (SMILES) | MIC (Staphylococcus aureus [1]; ATCC 25923, 24 h) | zone of inhibition at 100 µg/mL (Rhizopus arrhizus [2]) | zone of inhibition at 100 µg/mL (Candida albicans [3]) | zone of inhibition at 100 µg/mL (Pseudomonas aeruginosa [4]) | MIC (Pseudomonas aeruginosa [5]; ATCC 27853, 24 h) | MIC (Rhizopus arrhizus [6]; MTCC 262, 48 h) | zone of inhibition at 100 µg/mL (Staphylococcus aureus [7]) | zone of inhibition at 100 µg/mL (Escherichia coli [8]) | MIC (Aspergillus niger [9]; ATCC 16404, 48 h) | MIC (Candida albicans [10]; ATCC 10231, 48 h) | zone of inhibition at 100 µg/mL (Aspergillus niger [11]) | MIC (Escherichia coli [12]; ATCC 25922, 24 h) | MIC (Staphylococcus aureus [1]) | MIC (Pseudomonas aeruginosa [5]) | MIC (Rhizopus arrhizus [6]) | MIC (Aspergillus niger [9]) | MIC (Candida albicans [10]) | MIC (Escherichia coli [12])
CCN(CC)c1ccc(/C=C/C(=O)c2cc(C(=O)/C=C/c3ccc(N(CC)CC)cc3)c(O)cc2O)cc1 | 50 µg/mL (≈ 97.5 µM) | 5 mm | 10 mm | 5 mm | > 100 µg/mL | > 100 µg/mL | 10 mm | 10 mm | > 100 µg/mL | 50 µg/mL (≈ 97.5 µM) | 5 mm | 50 µg/mL (≈ 97.5 µM) | – | – | – | – | – | –
COc1cccc(/C=C/C(=O)c2cc(C(=O)/C=C/c3cccc(OC)c3)c(OC)cc2OC)c1 | – | < 5 mm | 5 mm | < 5 mm | – | – | < 5 mm | 5 mm | – | > 100 µg/mL | < 5 mm | > 100 µg/mL | inactive | inactive | inactive | inactive | – | –
CC(=O)c1cc(C(C)=O)c(OC(=O)c2ccccc2C)cc1OC(=O)c1ccccc1C | – | < 5 mm | < 5 mm | < 5 mm | – | – | < 5 mm | < 5 mm | – | – | < 5 mm | – | inactive | inactive | inactive | inactive | inactive | inactive
COc1cccc(-c2cc(=O)c3cc4c(=O)cc(-c5cccc(OC)c5)oc4cc3o2)c1 | 50 µg/mL (≈ 117 µM) | 15 mm | 15 mm | 10 mm | 50 µg/mL (≈ 117 µM) | 25 µg/mL (≈ 58.6 µM) | 10 mm | 5 mm | 25 µg/mL (≈ 58.6 µM) | 25 µg/mL (≈ 58.6 µM) | 15 mm | > 100 µg/mL | – | – | – | – | – | –
COc1ccc(/C=C/C(=O)c2cc(C(=O)/C=C/c3ccc(OC)c(OC)c3)c(OC)cc2OC)cc1OC | > 100 µg/mL | < 5 mm | 5 mm | < 5 mm | – | – | 5 mm | 10 mm | > 100 µg/mL | > 100 µg/mL | 5 mm | 50 µg/mL (≈ 96.4 µM) | – | inactive | inactive | – | – | –
O=C(/C=C/c1cccc(Cl)c1)c1cc(C(=O)/C=C/c2cccc(Cl)c2)c(O)cc1O | > 100 µg/mL | 10 mm | 10 mm | 10 mm | 50 µg/mL (≈ 114 µM) | 50 µg/mL (≈ 114 µM) | 5 mm | < 5 mm | > 100 µg/mL | 50 µg/mL (≈ 114 µM) | 5 mm | – | – | – | – | – | – | inactive
CC(=O)c1cc(C(C)=O)c(OC(=O)c2ccccc2[N+](=O)[O-])cc1OC(=O)c1ccccc1[N+](=O)[O-] | 50 µg/mL (≈ 102 µM) | < 5 mm | < 5 mm | < 5 mm | – | – | 10 mm | 5 mm | – | – | < 5 mm | > 100 µg/mL | – | inactive | inactive | inactive | inactive | –
O=c1cc(-c2ccco2)oc2cc3oc(-c4ccco4)cc(=O)c3cc12 | 25 µg/mL (≈ 72.2 µM) | 5 mm | 15 mm | 15 mm | 12.5 µg/mL (≈ 36.1 µM) | > 100 µg/mL | 15 mm | 15 mm | 50 µg/mL (≈ 144 µM) | 12.5 µg/mL (≈ 36.1 µM) | 10 mm | 25 µg/mL (≈ 72.2 µM) | – | – | – | – | – | –
COc1cc(/C=C/C(=O)c2cc(C(=O)/C=C/c3cc(OC)c(OC)c(OC)c3)c(O)cc2O)cc(OC)c1OC | 50 µg/mL (≈ 90.8 µM) | 10 mm | 15 mm | 5 mm | > 100 µg/mL | 50 µg/mL (≈ 90.8 µM) | 10 mm | 10 mm | 50 µg/mL (≈ 90.8 µM) | 25 µg/mL (≈ 45.4 µM) | 10 mm | 50 µg/mL (≈ 90.8 µM) | – | – | – | – | – | –
CC(=O)c1cc(C(C)=O)c(OC(=O)c2cccc(Cl)c2)cc1OC(=O)c1cccc(Cl)c1 | > 100 µg/mL | < 5 mm | < 5 mm | < 5 mm | – | – | 5 mm | < 5 mm | – | – | < 5 mm | – | – | inactive | inactive | inactive | inactive | inactive
COc1cc(OC)c(C(=O)/C=C/c2ccco2)cc1C(=O)/C=C/c1ccco1 | 50 µg/mL (≈ 132 µM) | 5 mm | 10 mm | < 5 mm | – | > 100 µg/mL | 10 mm | < 5 mm | 50 µg/mL (≈ 132 µM) | 50 µg/mL (≈ 132 µM) | 10 mm | – | – | inactive | – | – | – | inactive
O=C(/C=C/c1ccc(Cl)cc1)c1cc(C(=O)/C=C/c2ccc(Cl)cc2)c(O)cc1O | 50 µg/mL (≈ 114 µM) | 10 mm | 10 mm | 15 mm | 25 µg/mL (≈ 56.9 µM) | 50 µg/mL (≈ 114 µM) | 10 mm | 10 mm | 50 µg/mL (≈ 114 µM) | 50 µg/mL (≈ 114 µM) | 10 mm | 50 µg/mL (≈ 114 µM) | – | – | – | – | – | –
COc1cc(OC)c(C(=O)/C=C/c2cc(OC)c(OC)c(OC)c2)cc1C(=O)/C=C/c1cc(OC)c(OC)c(OC)c1 | > 100 µg/mL | < 5 mm | 5 mm | 5 mm | > 100 µg/mL | – | 5 mm | 10 mm | – | > 100 µg/mL | < 5 mm | 50 µg/mL (≈ 86.4 µM) | – | – | inactive | inactive | – | –
COC1=CC(=O)C[C@@H](C)[C@]12Oc1c(Cl)c(OC)cc(OC)c1C2=O [GRISEOFULVIN] | – | > 20 mm | > 20 mm | – | – | 6.25 µg/mL (≈ 17.7 µM) | – | – | 6.25 µg/mL (≈ 17.7 µM) | 6.25 µg/mL (≈ 17.7 µM) | > 20 mm | – | – | – | – | – | – | –
O=C(O)c1cn(C2CC2)c2cc(N3CCNCC3)c(F)cc2c1=O [CIPROFLOXACIN] | – | – | – | > 20 mm | – | – | > 20 mm | > 20 mm | – | – | – | – | – | – | – | – | – | –
O=c1c(O)c(-c2ccc(O)c(O)c2)oc2cc(O)cc(O)c12 [QUERCETIN] | > 100 µg/mL | – | – | – | – | – | – | – | – | > 100 µg/mL | – | > 100 µg/mL | – | – | – | – | – | –
